Here are results for 21 compounds from PubChem BioAssay AID192 (DTP/NCI, 2004).

Where “and” joins values, the source holds several entries; their conditions need not be identical. Identical values can stand only once. Toxic doses and inconclusive results are not listed.

The test system of this test is BDF1 mice, B16 melanoma ip, median survival T/C. As to the kind of experiment: NCI In Vivo Anticancer Drug Screen. Data for tumor model B16 Melanoma (intraperitoneal) in B6D2F1 (BDF1) mice. The settings on record: endpoint: median survival time, higher = longer survival. A digest of the protocol:
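Each result divides a survival or tumor-size measurement in the compound-treated group by the same measurement in the vehicle group.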

The mark [1] stands for this setting: dose: 50.0 mg/kg/injection, schedule: Q01DX009 (ip), vehicle: saline with Tween-80.
Where [2] appears, read: dose: 100.0 mg/kg/injection, schedule: Q01DX009 (ip), vehicle: saline with Tween-80.
Setting [3] is: dose: 200.0 mg/kg/injection, schedule: Q01DX009 (ip), vehicle: saline with Tween-80.
The mark [4] stands for this setting: dose: 25.0 mg/kg/injection, schedule: Q04DX003 (ip), vehicle: saline.
[5] abbreviates: dose: 50.0 mg/kg/injection, schedule: Q04DX003 (ip), vehicle: saline.
The mark [6] stands for this setting: dose: 100.0 mg/kg/injection, schedule: Q04DX003 (ip), vehicle: saline.
Setting [7] is: dose: 3.12 mg/kg/injection, schedule: Q01DX009 (ip), vehicle: Klucel (hydroxypropylcellulose) (HPC).
Setting [8] is: dose: 100.0 mg/kg/injection, schedule: Q01DX009 (ip), vehicle: Klucel (hydroxypropylcellulose) (HPC).
[9] abbreviates: dose: 1.56 mg/kg/injection, schedule: Q01DX009 (ip), vehicle: saline with Tween-80.
[10] abbreviates: dose: 3.13 mg/kg/injection, schedule: Q01DX009 (ip), vehicle: saline with Tween-80.
Setting [11] is: dose: 6.25 mg/kg/injection, schedule: Q01DX009 (ip), vehicle: saline with Tween-80.
The mark [12] stands for this setting: dose: 50.0 mg/kg/injection, schedule: Q04DX003 (ip), vehicle: Klucel (hydroxypropylcellulose) (HPC).
Where [13] appears, read: dose: 100.0 mg/kg/injection, schedule: Q04DX003 (ip), vehicle: Klucel (hydroxypropylcellulose) (HPC).
Where [14] appears, read: dose: 25.0 mg/kg/injection, schedule: Q01DX009 (ip), vehicle: Klucel (hydroxypropylcellulose) (HPC).
Where [15] appears, read: dose: 50.0 mg/kg/injection, schedule: Q01DX009 (ip), vehicle: Klucel (hydroxypropylcellulose) (HPC).
[16] abbreviates: dose: 25.0 mg/kg/injection, schedule: Q01DX009 (ip), vehicle: saline.
[17] abbreviates: dose: 50.0 mg/kg/injection, schedule: Q01DX009 (ip), vehicle: saline.
[18] abbreviates: dose: 100.0 mg/kg/injection, schedule: Q01DX009 (ip), vehicle: saline.
[19] abbreviates: dose: 200.0 mg/kg/injection, schedule: Q01DX009 (ip), vehicle: saline.
Setting [20] is: dose: 400.0 mg/kg/injection, schedule: Q01DX009 (ip), vehicle: saline.

In the case of `CCOC(=O)C(C)(C)Oc1ccc(Cl)cc1`, the T/C runs as follows: under setting [1], 97 % of control and 113 % of control; under setting [2], 88 % of control and 113 % of control; under setting [3], 102 % of control.
On to `CC1(C)Oc2c(ccc(O)c2CN2CCOCC2)C2=C1CCCC2`, for which the T/C (dose: 64.0 mg/kg/injection, schedule: Q01DX009 (ip), vehicle: Klucel (hydroxypropylcellulose) (HPC)) is 96 % of control; the T/C (dose: 128.0 mg/kg/injection, schedule: Q01DX009 (ip), vehicle: Klucel (hydroxypropylcellulose) (HPC)) was 96 % of control; the T/C (dose: 256.0 mg/kg/injection, schedule: Q01DX009 (ip), vehicle: Klucel (hydroxypropylcellulose) (HPC)) is 101 % of control.
`CCC(C(=O)O)C(=O)O.[NH2-].[NH2-].[Pt+2]`: the T/C is 115 % of control (dose: 8.0 mg/kg/injection, schedule: Q01DX009 (ip), vehicle: water); 108 % of control and 113 % of control (dose: 12.5 mg/kg/injection, schedule: Q04DX003 (ip), vehicle: saline); 170 % of control (dose: 16.0 mg/kg/injection, schedule: Q01DX009 (ip), vehicle: water); 170 % of control under setting [4]; 177 % of control and 219 % of control under setting [5]; 112 % of control and 247 % of control under setting [6].
Turning to `O=C(CCCN1CCN(c2ccccn2)CC1)c1ccc(F)cc1`, the T/C is 93 % of control (dose: 0.19 mg/kg/injection, schedule: Q01DX009 (ip), vehicle: Klucel (hydroxypropylcellulose) (HPC)); 89 % of control (dose: 0.39 mg/kg/injection, schedule: Q01DX009 (ip), vehicle: Klucel (hydroxypropylcellulose) (HPC)); 110 % of control (dose: 0.78 mg/kg/injection, schedule: Q01DX009 (ip), vehicle: Klucel (hydroxypropylcellulose) (HPC)); 92 % of control (dose: 1.56 mg/kg/injection, schedule: Q01DX009 (ip), vehicle: Klucel (hydroxypropylcellulose) (HPC)); 88 % of control under setting [7].
On to `CCCCCCCCCCCCNC(=O)Nc1cc(C)ccc1C`, for which the T/C under setting [8] is 92 % of control and the T/C (dose: 200.0 mg/kg/injection, schedule: Q01DX009 (ip), vehicle: Klucel (hydroxypropylcellulose) (HPC)) was 96 % of control.
As for `Cc1c2cccc(Sc3ccccc3)c2c2c3c(cccc13)[S+](c1ccccc1)C2` (configuration not stated), the T/C by setting is: (dose: 0.78 mg/kg/injection, schedule: Q01DX009 (ip), vehicle: saline with Tween-80) 104 % of control; under setting [9], 105 % of control; under setting [10], 102 % of control; under setting [11], 91 % of control and 100 % of control.
With `COc1ccc(/C(C)=N\NC(=O)c2ccccc2)cc1`, the T/C under setting [12] was 95 % of control; the T/C under setting [13] was 102 % of control; the T/C (dose: 200.0 mg/kg/injection, schedule: Q04DX003 (ip), vehicle: Klucel (hydroxypropylcellulose) (HPC)) is 87 % of control.
On to `CC1CCCCN1CCNc1ccc(CO)c2sc3ccccc3c(=O)c12` (configuration not stated), for which the T/C reads like this: (dose: 25.0 mg/kg/injection, schedule: Q01DX009 (ip), vehicle: saline with Tween-80) 112 % of control; under setting [1], 124 % of control; under setting [2], 121 % of control.
Consider `Nc1cc(NC(=O)c2ccc(Cl)cc2)ccc1S(=O)(=O)O`, for which the T/C was 94 % of control under setting [7]; 99 % of control (dose: 6.25 mg/kg/injection, schedule: Q01DX009 (ip), vehicle: Klucel (hydroxypropylcellulose) (HPC)); 96 % of control (dose: 12.5 mg/kg/injection, schedule: Q01DX009 (ip), vehicle: Klucel (hydroxypropylcellulose) (HPC)); 98 % of control under setting [14]; 98 % of control under setting [15].
For the compound `Cc1c2c(cc3c1[nH]c1ccccc13)C=NCC2`, the T/C under setting [1] was 107 % of control, the T/C under setting [2] is 98 % of control and the T/C under setting [3] was 109 % of control.
Take `O=C(CN1C(=O)c2ccccc2C1=O)OC(c1ccccc1)c1ccccc1`: the T/C is, setting by setting: under setting [15], 90 % of control; under setting [8], 90 % of control.
`CC(=O)Nc1cc(NC(C)=O)cc(N(CCCl)CCCl)c1`: the T/C is 119 % of control (dose: 6.25 mg/kg/injection, schedule: Q01DX009 (ip), vehicle: water) and 115 % of control (dose: 12.5 mg/kg/injection, schedule: Q01DX009 (ip), vehicle: water).
For the compound `OC1CC2CCC(C1)N2CCCN1c2ccccc2Sc2ccc(Cl)cc21` (configuration not stated), the T/C is 97 % of control under setting [4]; 90 % of control under setting [5]; 93 % of control under setting [6]; 88 % of control (dose: 200.0 mg/kg/injection, schedule: Q04DX003 (ip), vehicle: saline).
Turning to `CCOC(=O)CCCc1ccc(N=NN(C)C)cc1`, the T/C is 102 % of control under setting [9], 105 % of control under setting [10] and 100 % of control under setting [11].
Consider `c1ccc(CSc2ncnc3nc[nH]c23)cc1`, for which the T/C by setting is: under setting [14], 95 % of control; (dose: 25.0 mg/kg/injection, schedule: Q04DX003 (ip), vehicle: Klucel (hydroxypropylcellulose) (HPC)) 95 % of control; under setting [12], 100 % of control; under setting [13], 97 % of control.
Consider `COc1cccc2c1C(=O)c1c(O)c3c(c(O)c1C2=O)C[C@@](O)(C(C)=O)C[C@@H]3OC1CC(N2CCC(OC)CC2)C(O)C(C)O1` (some centres not stated), for which the T/C reads like this: (dose: 1.56 mg/kg/injection, schedule: Q01DX001 (ip), vehicle: water) 123 % of control; (dose: 6.25 mg/kg/injection, schedule: Q01DX001 (ip), vehicle: water) 162 % of control.
As for `N#CC1CCCC[N-]1.[NH-]CC[N-]CC[NH-].[Pt+4]` (configuration not stated), the T/C runs as follows: (dose: 6.25 mg/kg/injection, schedule: Q01DX009 (ip), vehicle: saline) 113 % of control; (dose: 12.5 mg/kg/injection, schedule: Q01DX009 (ip), vehicle: saline) 108 % of control; under setting [16], 91 % of control.
Turning to `CN(C)CCOC(=O)COc1ccc(Cl)cc1`, the T/C is 104 % of control under setting [16]; 104 % of control under setting [17]; 109 % of control under setting [18]; 102 % of control under setting [19]; 97 % of control under setting [20].
For the compound `C=C(C)[C@]12CC(C)C34OC(/C=C\C=C\CCCCCCCCC)(O[C@@H]1[C@@H]3[C@@H]1O[C@]1(CO)[C@@H](O)[C@]1(O)C(=O)C(C)=C[C@@H]41)O2` (some centres not stated), the T/C runs as follows: (dose: 0.09 mg/kg/injection, schedule: Q01DX009 (ip), vehicle: alcohol) 88 % of control; (dose: 0.18 mg/kg/injection, schedule: Q01DX009 (ip), vehicle: saline + alcohol) 98 % of control; (dose: 0.19 mg/kg/injection, schedule: Q01DX009 (ip), vehicle: alcohol) 88 % of control; (dose: 0.37 mg/kg/injection, schedule: Q01DX009 (ip), vehicle: saline + alcohol) 89 % of control.
Consider `CC(=O)CC(=O)NCc1ccncc1`, for which the T/C is 118 % of control under setting [18], 112 % of control under setting [19] and 116 % of control under setting [20].
As to `O=c1ncccn1[C@@H]1O[C@H](CO)[C@H](O)C1O` (some centres not stated), the T/C under setting [16] was 119 % of control, the T/C under setting [17] was 115 % of control and the T/C under setting [20] is 166 % of control.
